Experimental data as given in patent US7595156B2 (priority 2003, dated 2009).

Tests used:
[1] = tested on: Saccharomyces cerevisiae; experiment: Antifungal activity test, growth inhibition zones; format: cell-based; conditions: activity of the CS101 and CS102 culture mediums attributed to the variants produced in the mutant strains; FIG. 7
Method: FR-008 mutant strains CS101 and CS102 were added (see, FIG. 7). In FIG. 7, the left turbid zone is a zone added with Streptomyces sp. FR-008, the middle is a zone added with the mutant strain CS101, and the right is a zone added with the mutant strain CS102. […] This is caused by the polyketide variants V, VI, VIII, IX, X, XI and XII, which are produced in the mutant strains.

[2] = tested on: mosquito larva; conditions: background statement, Liang and Zhou 1987; cited from earlier work
[3] = background statement, Liang and Zhou 1987; cited from earlier work

## C[C@H](C[C@H](C)[C@@H]1OC(=O)CC(=O)CCCC(=O)CCC[C@@H](O)C[C@@H](O)CC(=O)C[C@H](O)[C@H](C(=O)O)[C@@H](O)C[C@H](O[C@@H]2O[C@@H](C)[C@H](O)C(=O)[C@H]2O)/C=C/C=C/C=C/C=C/C=C/C=C/C=C/[C@@H]1C)[C@H](O)CC(=O)c1ccc(N)cc1 [polyketide XII]
[1]
  antifungal activity of polyketide variants: antifungal activity

## C[C@H](C[C@H](C)[C@@H]1OC(=O)CC(=O)CCCC(=O)C[C@@H](O)C[C@@H](O)C[C@@H](O)C[C@]2(O)C[C@H](O)[C@H](C(=O)O)[C@H](C[C@H](O[C@@H]3O[C@@H](C)[C@H](O)[C@@H](N)[C@H]3O)/C=C/C=C/C=C/C=C/C=C/C=C/C=C/[C@@H]1C)O2)[C@H](O)CC(=O)c1ccc(N)cc1 [FR-008 polyketide]
[2]
  toxicity against mosquito larva: high toxicity
[3]
  antifungal activity: antifungal activity
